Measured values as given in article PMC12090182, “Repurposing of the RIPK1-Selective Benzo[1,4]oxazepin-4-one Scaffold for the Development of a Type III LIMK1/2 Inhibitor” (ACS Chemical Biology, 2025).

Experiments:
Test in all cases: scanMAX KINOMEscan (Eurofins)
Assay type in all cases: binding
[1] = biological target: CTK (Homo sapiens, UniProt P42679); conditions: 1000 nM, read-out: Percent Control
Source text: (§1) Supplement cb5c00097_si_002.xlsx, sheet "Table S6 (Eurofins Selectivity)" | column: Percent Control

[2] = biological target: FRK (Homo sapiens, UniProt P42685); conditions: 1000 nM, read-out: Percent Control
Source text: as §1

[3] = biological target: CHEK2 (Homo sapiens, UniProt O96017); conditions: read-out: Percent Control
Chain of CHEK2 (O96017 whole entry): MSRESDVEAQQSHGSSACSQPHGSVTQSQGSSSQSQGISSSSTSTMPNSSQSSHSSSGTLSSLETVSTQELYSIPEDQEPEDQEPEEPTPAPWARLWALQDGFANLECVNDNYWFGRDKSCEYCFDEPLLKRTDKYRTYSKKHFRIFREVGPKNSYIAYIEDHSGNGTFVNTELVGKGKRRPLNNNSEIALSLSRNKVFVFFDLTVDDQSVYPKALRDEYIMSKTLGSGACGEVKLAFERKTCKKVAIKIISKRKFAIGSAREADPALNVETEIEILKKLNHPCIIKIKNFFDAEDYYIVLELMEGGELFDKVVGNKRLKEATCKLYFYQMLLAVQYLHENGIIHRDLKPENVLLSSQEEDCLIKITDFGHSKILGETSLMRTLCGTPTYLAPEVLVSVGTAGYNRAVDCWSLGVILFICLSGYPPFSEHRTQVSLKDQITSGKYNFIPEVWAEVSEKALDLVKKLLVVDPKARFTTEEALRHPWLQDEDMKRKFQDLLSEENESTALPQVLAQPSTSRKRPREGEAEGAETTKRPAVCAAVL
Source text: as §1

[4] = biological target: JAK2(JH1domain-catalytic) (Homo sapiens, UniProt O60674); conditions: compound concentration 100 nM; Entrez JAK2; read-out: Percent Control
Source text: as §1

[5] = biological target: PIM3 (Homo sapiens, UniProt Q86V86); conditions: 1000 nM, read-out: Percent Control
Source text: as §1

[6] = biological target: CDK5 (Homo sapiens, UniProt Q00535); conditions: read-out: Percent Control
Chain of CDK5 (Q15078 whole entry): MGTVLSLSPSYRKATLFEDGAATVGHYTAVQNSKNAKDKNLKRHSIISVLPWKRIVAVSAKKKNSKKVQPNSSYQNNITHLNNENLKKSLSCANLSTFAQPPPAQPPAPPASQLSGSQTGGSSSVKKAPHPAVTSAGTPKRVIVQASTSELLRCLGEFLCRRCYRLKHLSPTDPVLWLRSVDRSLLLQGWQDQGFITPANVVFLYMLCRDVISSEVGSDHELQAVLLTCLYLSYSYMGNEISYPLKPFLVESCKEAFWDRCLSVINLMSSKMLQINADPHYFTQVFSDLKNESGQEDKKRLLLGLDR
Chain of CDK5 (Q00535 whole entry): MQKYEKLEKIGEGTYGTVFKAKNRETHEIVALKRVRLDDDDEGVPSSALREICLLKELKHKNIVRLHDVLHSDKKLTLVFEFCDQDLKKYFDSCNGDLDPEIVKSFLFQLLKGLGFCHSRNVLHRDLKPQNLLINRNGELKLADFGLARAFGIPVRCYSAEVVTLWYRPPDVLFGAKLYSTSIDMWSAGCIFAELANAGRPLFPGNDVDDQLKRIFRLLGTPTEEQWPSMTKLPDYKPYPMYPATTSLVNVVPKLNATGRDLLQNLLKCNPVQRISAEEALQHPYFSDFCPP
Source text: as §1

[7] = biological target: ERN1 (Homo sapiens, UniProt O75460); conditions: read-out: Percent Control
Chain of ERN1 (O75460 19-977): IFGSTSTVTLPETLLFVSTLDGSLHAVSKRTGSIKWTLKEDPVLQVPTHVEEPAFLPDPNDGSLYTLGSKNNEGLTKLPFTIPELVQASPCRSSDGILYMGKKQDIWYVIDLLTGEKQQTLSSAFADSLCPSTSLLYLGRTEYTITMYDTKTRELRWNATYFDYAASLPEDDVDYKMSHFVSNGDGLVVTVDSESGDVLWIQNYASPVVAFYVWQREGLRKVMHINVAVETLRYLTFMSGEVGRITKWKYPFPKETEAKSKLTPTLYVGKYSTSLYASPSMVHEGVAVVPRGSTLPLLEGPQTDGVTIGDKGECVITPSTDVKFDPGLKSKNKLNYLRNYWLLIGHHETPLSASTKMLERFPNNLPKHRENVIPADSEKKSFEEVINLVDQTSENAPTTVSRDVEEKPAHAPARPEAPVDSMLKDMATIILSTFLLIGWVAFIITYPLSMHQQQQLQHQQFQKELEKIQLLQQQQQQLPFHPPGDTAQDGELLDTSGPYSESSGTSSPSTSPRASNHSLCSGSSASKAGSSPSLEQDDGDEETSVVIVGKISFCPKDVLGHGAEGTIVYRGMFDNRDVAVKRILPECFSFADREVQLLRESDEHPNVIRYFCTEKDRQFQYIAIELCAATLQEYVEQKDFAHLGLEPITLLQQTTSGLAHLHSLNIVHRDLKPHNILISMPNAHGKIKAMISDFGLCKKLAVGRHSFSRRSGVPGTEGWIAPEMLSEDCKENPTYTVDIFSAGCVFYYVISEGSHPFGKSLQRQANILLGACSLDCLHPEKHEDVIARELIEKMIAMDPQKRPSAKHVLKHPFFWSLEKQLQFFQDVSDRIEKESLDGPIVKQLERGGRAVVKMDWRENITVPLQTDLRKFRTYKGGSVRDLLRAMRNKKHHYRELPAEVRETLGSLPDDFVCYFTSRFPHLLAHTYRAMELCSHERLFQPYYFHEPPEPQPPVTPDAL
Source text: as §1

[8] = biological target: KIT-autoinhibited (Homo sapiens, UniProt P10721); conditions: 1000 nM, read-out: Percent Control
Source text: as §1

[9] = biological target: LCK (Homo sapiens, UniProt P06239); conditions: 1000 nM, read-out: Percent Control
Source text: as §1

[10] = biological target: BLK (Homo sapiens, UniProt P51451); conditions: 1000 nM, read-out: Percent Control
Source text: as §1

[11] = biological target: RIPK4 (Homo sapiens, UniProt P57078); conditions: 1000 nM, read-out: Percent Control
Source text: as §1

[12] = biological target: ROCK2 (Homo sapiens, UniProt O75116); conditions: 1000 nM, read-out: Percent Control
Source text: as §1

[13] = biological target: MEK2 (Homo sapiens, UniProt P36507); conditions: compound concentration 100 nM; Entrez MAP2K2; read-out: Percent Control
Source text: as §1

[14] = biological target: DDR2 (Homo sapiens, UniProt Q16832); conditions: 1000 nM, read-out: Percent Control
Source text: as §1

[15] = biological target: PAK2 (Homo sapiens, UniProt Q13177); conditions: 1000 nM, read-out: Percent Control
Source text: as §1

[16] = biological target: CSF1R (Homo sapiens, UniProt P07333); conditions: read-out: Percent Control
Source text: as §1

[17] = biological target: TSSK1B (Homo sapiens, UniProt Q9BXA7); conditions: 1000 nM, read-out: Percent Control
Source text: as §1

[18] = biological target: CSNK1A1 (Homo sapiens, UniProt P48729); conditions: 1000 nM, read-out: Percent Control
Chain of CSNK1A1 (P48729 whole entry): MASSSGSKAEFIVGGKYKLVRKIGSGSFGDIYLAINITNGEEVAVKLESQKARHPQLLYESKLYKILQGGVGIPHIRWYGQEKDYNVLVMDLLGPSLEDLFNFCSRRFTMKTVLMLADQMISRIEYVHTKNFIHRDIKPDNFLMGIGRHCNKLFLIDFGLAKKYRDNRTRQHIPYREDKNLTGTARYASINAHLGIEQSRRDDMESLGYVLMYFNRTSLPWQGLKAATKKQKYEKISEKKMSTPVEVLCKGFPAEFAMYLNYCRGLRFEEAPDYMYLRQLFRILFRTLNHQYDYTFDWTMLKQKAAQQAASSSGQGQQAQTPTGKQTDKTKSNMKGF
Source text: as §1

[19] = biological target: MAP3K3 (Homo sapiens, UniProt Q99759); conditions: 1000 nM, read-out: Percent Control
Source text: as §1

[20] = biological target: MLK1 (Homo sapiens, UniProt P80192); conditions: compound concentration 100 nM; Entrez MAP3K9; read-out: Percent Control
Source text: as §1

[21] = biological target: ERK1 (Homo sapiens, UniProt P27361); conditions: read-out: Percent Control
Chain of ERK1 (P27361 whole entry): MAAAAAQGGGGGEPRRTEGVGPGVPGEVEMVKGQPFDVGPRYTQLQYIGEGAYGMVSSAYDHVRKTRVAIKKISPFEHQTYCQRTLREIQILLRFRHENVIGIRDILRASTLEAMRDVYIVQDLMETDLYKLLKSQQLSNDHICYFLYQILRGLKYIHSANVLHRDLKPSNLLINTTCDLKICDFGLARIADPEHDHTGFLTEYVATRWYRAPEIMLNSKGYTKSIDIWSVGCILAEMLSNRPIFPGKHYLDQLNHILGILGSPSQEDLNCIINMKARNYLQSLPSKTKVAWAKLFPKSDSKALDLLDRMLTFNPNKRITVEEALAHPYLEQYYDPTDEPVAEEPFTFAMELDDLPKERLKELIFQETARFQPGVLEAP
Source text: as §1

[22] = biological target: MEK5 (Homo sapiens, UniProt Q13163); conditions: 1000 nM, read-out: Percent Control
Source text: as §1

[23] = biological target: MAPKAPK2 (Homo sapiens, UniProt P49137); conditions: 1000 nM, read-out: Percent Control
Source text: as §1

[24] = biological target: ADCK3 (Homo sapiens, UniProt Q8NI60); conditions: read-out: Percent Control
Chain of ADCK3 (Q8NI60 163-647): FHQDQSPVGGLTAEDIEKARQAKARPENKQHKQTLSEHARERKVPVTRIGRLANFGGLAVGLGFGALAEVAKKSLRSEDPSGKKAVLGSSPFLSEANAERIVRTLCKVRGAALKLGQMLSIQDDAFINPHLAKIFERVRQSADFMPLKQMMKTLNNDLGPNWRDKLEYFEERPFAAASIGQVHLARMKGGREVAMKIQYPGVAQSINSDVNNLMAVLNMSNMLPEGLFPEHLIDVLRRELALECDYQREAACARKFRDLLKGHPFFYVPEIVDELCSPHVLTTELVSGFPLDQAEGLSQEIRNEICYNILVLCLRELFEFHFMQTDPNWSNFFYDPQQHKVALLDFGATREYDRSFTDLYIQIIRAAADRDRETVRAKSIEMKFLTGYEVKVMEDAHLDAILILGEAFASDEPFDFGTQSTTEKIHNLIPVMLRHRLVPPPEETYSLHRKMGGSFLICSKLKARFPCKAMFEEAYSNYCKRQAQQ
Source text: as §1

[25] = biological target: TLK2 (Homo sapiens, UniProt Q86UE8); conditions: compound concentration 100 nM; Entrez TLK2; read-out: Percent Control
Source text: as §1

[26] = biological target: WNK3 (Homo sapiens, UniProt Q9BYP7); conditions: 1000 nM, read-out: Percent Control
Source text: as §1

[27] = biological target: S6K1 (Homo sapiens, UniProt P23443); conditions: compound concentration 100 nM; Entrez RPS6KB1; read-out: Percent Control
Source text: as §1

[28] = biological target: CDC2L2 (Homo sapiens, UniProt Q9UQ88); conditions: 1000 nM, read-out: Percent Control
Source text: as §1

[29] = biological target: JNK2 (Homo sapiens, UniProt P45984); conditions: 1000 nM, read-out: Percent Control
Source text: as §1

[30] = biological target: ABL2 (Homo sapiens, UniProt P42684); conditions: read-out: Percent Control
Chain of ABL2 (P42684 whole entry): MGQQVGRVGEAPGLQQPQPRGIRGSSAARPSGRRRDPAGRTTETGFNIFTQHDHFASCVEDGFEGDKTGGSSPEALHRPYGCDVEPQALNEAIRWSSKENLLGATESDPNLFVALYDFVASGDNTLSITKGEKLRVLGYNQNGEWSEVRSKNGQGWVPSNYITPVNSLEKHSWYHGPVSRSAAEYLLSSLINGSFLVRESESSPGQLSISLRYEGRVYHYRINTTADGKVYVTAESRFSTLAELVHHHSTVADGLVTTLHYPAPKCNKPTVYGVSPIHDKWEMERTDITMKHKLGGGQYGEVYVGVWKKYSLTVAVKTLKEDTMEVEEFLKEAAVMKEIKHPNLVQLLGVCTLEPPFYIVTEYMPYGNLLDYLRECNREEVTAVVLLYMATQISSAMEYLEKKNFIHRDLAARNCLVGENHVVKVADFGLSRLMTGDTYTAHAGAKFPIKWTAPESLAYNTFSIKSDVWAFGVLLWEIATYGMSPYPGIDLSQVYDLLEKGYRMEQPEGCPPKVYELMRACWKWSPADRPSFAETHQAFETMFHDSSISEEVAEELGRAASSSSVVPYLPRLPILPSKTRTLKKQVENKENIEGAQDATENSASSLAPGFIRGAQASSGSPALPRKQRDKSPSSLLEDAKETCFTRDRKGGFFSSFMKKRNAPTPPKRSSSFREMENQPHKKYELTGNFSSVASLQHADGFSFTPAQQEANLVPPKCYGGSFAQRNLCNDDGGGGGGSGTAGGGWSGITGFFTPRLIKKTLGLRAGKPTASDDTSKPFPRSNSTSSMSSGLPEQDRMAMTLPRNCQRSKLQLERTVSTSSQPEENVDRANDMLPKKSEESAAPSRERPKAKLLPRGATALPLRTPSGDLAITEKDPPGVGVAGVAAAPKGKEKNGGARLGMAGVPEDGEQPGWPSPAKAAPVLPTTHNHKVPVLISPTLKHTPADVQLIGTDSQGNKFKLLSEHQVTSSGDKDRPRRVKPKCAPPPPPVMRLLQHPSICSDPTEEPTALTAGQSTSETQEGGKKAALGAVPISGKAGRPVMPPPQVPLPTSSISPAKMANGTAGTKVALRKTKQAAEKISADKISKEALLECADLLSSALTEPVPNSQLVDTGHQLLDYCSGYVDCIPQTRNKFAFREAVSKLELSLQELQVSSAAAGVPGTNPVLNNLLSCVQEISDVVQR
Source text: as §1

[31] = biological target: DRAK1 (Homo sapiens, UniProt Q9UEE5); conditions: 1000 nM, read-out: Percent Control
Source text: as §1

[32] = biological target: FAK (Homo sapiens, UniProt Q05397); conditions: 1000 nM, read-out: Percent Control
Source text: as §1

[33] = biological target: PAK7 (Homo sapiens, UniProt Q9P286); conditions: 1000 nM, read-out: Percent Control
Source text: as §1

[34] = biological target: CSNK2A1 (Homo sapiens, UniProt P68400); conditions: read-out: Percent Control
Chain of CSNK2A1 (P68400 whole entry): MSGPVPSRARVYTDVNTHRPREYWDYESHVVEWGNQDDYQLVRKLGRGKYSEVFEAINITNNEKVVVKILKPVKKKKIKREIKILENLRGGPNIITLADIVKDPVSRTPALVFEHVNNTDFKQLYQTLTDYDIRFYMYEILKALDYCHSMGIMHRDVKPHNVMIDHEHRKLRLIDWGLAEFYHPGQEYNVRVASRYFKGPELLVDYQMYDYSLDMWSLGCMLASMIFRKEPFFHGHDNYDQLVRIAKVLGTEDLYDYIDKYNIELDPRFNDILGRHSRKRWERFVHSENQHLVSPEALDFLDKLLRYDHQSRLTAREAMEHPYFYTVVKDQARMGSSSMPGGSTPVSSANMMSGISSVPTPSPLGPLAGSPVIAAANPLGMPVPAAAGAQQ
Source text: as §1

[35] = biological target: TIE2 (Homo sapiens, UniProt Q02763); conditions: compound concentration 100 nM; Entrez TEK; read-out: Percent Control
Source text: as §1

[36] = biological target: CAMK2D (Homo sapiens, UniProt Q13557); conditions: 1000 nM, read-out: Percent Control
Source text: as §1

[37] = biological target: TNIK (Homo sapiens, UniProt Q9UKE5); conditions: 1000 nM, read-out: Percent Control
Source text: as §1

For `CN1C(=O)[C@@H](N2CCc3c(nn(Cc4ccccc4)c3C(N)=O)C2=O)COc2cc(Cl)ccc21` [Compound 10, (S)-2-benzyl-6-(8-chloro-5-methyl-4-oxo-2,3,4,5-tetrahydrobenzo[b][1,4]oxazepin-3-yl)-7-oxo-4,5,6,7-tetrahydro-2H-pyrazolo[3,4-c]pyridine-3-carboxamide], the remaining binding at 1 µM [1] was 97%, the remaining binding at 1 µM [2] was 81% and the remaining binding at 1 µM ([3]; 1000 nM) was 100%. For the same molecule, the remaining binding at 0.1 µM ([3]; compound concentration 100 nM, Entrez CHEK2) was 100%, the remaining binding at 0.1 µM [4] was 81% and the remaining binding at 1 µM [5] was 65%. For the same molecule, the remaining binding at 1 µM ([6]; 1000 nM) was 99%, the remaining binding at 0.1 µM ([6]; compound concentration 100 nM, Entrez CDK5) was 78% and the remaining binding at 1 µM ([7]; 1000 nM) was 100%. The remaining binding at 0.1 µM ([7]; compound concentration 100 nM, Entrez ERN1) was 100%, the remaining binding at 1 µM [8] was 97% and the remaining binding at 1 µM [9] was 82%. The remaining binding at 1 µM [10] was 88%, the remaining binding at 1 µM [11] was 83% and the remaining binding at 1 µM [12] was 74%. It also gave a remaining binding at 0.1 µM [13] of 94%, a remaining binding at 1 µM [14] of 86% and a remaining binding at 1 µM [15] of 67%. For the same molecule, the remaining binding at 1 µM ([16]; 1000 nM) was 100%, the remaining binding at 0.1 µM ([16]; compound concentration 100 nM, Entrez CSF1R) was 83% and the remaining binding at 1 µM [17] was 82%. The remaining binding at 1 µM [18] was 83%, the remaining binding at 1 µM [19] was 94% and the remaining binding at 0.1 µM [20] was 89%. The remaining binding at 1 µM ([21]; 1000 nM) was 100%, the remaining binding at 0.1 µM ([21]; compound concentration 100 nM, Entrez MAPK3) was 93% and the remaining binding at 1 µM [22] was 82%. The remaining binding at 1 µM [23] was 64%, the remaining binding at 1 µM ([24]; 1000 nM) was 100% and the remaining binding at 0.1 µM ([24]; compound concentration 100 nM, Entrez CABC1) was 100%. The remaining binding at 0.1 µM [25] was 82%, the remaining binding at 1 µM [26] was 69% and the remaining binding at 0.1 µM [27] was 76%. It also gave a remaining binding at 1 µM [28] of 86%, a remaining binding at 1 µM [29] of 89% and a remaining binding at 1 µM ([30]; 1000 nM) of 100%. It also gave a remaining binding at 0.1 µM ([30]; compound concentration 100 nM, Entrez ABL2) of 100%, a remaining binding at 1 µM [31] of 91% and a remaining binding at 1 µM [32] of 90%. For the same molecule, the remaining binding at 1 µM [33] was 91%, the remaining binding at 1 µM ([34]; 1000 nM) was 100% and the remaining binding at 0.1 µM ([34]; compound concentration 100 nM, Entrez CSNK2A1) was 82%. The remaining binding at 0.1 µM [35] was 95%, the remaining binding at 1 µM [36] was 89% and the remaining binding at 1 µM [37] was 96%.
